Assay results reported in PubChem BioAssay (NCI).
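Cells were grown in 96-well plates and exposed to each compound for 48 hours at five concentrations; endpoints were interpolated linearly between bracketing concentrations, or set to the highest concentration if not reached. The concentration for full growth arrest is given as TGI.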

Experiments:
Experiment in all cases: NCI tumour cell line growth inhibition, 48 h
KM12 colon = system: KM12 colon
EKVX NSCLC = system: EKVX NSCLC
HCT-116 colon = system: HCT-116 colon
COLO 205 colon = system: COLO 205 colon
SW-620 colon = system: SW-620 colon
A549 NSCLC = system: A549 NSCLC
SK-MEL-28 melanoma = system: SK-MEL-28 melanoma
RXF 393 renal = system: RXF 393 renal
BT-549 breast = system: BT-549 breast
CCRF-CEM leukemia = system: CCRF-CEM leukemia
K-562 leukemia = system: K-562 leukemia
OVCAR-5 ovarian = system: OVCAR-5 ovarian
OVCAR-8 ovarian = system: OVCAR-8 ovarian
PC-3 prostate = system: PC-3 prostate
CAKI-1 renal = system: CAKI-1 renal
SR leukemia = system: SR leukemia
HT29 colon = system: HT29 colon
SK-MEL-5 melanoma = system: SK-MEL-5 melanoma
NCI-H226 lung = system: NCI-H226 lung
HCC-2998 colon = system: HCC-2998 colon
MALME-3M melanoma = system: MALME-3M melanoma
MCF7 breast = system: MCF7 breast
SK-MEL-2 melanoma = system: SK-MEL-2 melanoma
HS 578T breast = system: HS 578T breast
A498 renal = system: A498 renal
UO-31 renal = system: UO-31 renal
T-47D breast = system: T-47D breast
DU-145 prostate = system: DU-145 prostate
NCI-H460 lung = system: NCI-H460 lung
SF-268 CNS = system: SF-268 CNS
MDA-MB-435 = system: MDA-MB-435
SNB-75 CNS = system: SNB-75 CNS
HOP-92 NSCLC = system: HOP-92 NSCLC
OVCAR-4 ovarian = system: OVCAR-4 ovarian
SK-OV-3 ovarian = system: SK-OV-3 ovarian
U251 CNS = system: U251 CNS
MDA-MB-231 breast = system: MDA-MB-231 breast
SNB-19 CNS = system: SNB-19 CNS
M14 melanoma = system: M14 melanoma
UACC-62 melanoma = system: UACC-62 melanoma
OVCAR-3 ovarian = system: OVCAR-3 ovarian
NCI-H522 lung = system: NCI-H522 lung
NCI/ADR-RES ovarian = system: NCI/ADR-RES ovarian
SN12C renal = system: SN12C renal
UACC-257 melanoma = system: UACC-257 melanoma
IGROV1 ovarian = system: IGROV1 ovarian
NCI-H23 lung = system: NCI-H23 lung
HCT-15 colon = system: HCT-15 colon
MOLT-4 leukemia = system: MOLT-4 leukemia
TK-10 renal = system: TK-10 renal
786-0 renal = system: 786-0 renal
HL-60(TB) leukemia = system: HL-60(TB) leukemia
LOX IMVI melanoma = system: LOX IMVI melanoma
MDA-N = system: MDA-N
ACHN renal = system: ACHN renal
HOP-62 NSCLC = system: HOP-62 NSCLC

Measured: TGI

CCCCCCCCCCCCCCCCOP(=O)(O)OP(=O)(O)OCC1OC(n2cnc3c(N)ncnc32)C(O)C1O (stereo unspecified)
36.9 µM: BT-549 breast
78.3 µM: SR leukemia
92.8 µM: NCI-H522 lung
36.7 µM: HOP-92 NSCLC
64 µM: SK-MEL-28 melanoma
61.8 µM: SNB-75 CNS
47.4 µM: OVCAR-5 ovarian
86.6 µM: CCRF-CEM leukemia
> 100 µM: all other assays above
